Patent US4201784A, “Substituted 2-[2'-(5"-nitrofuryl-2")vinyl-and 4'-(5"-nitrofuryl-2"-1,3-butadieryl]quinoline-4-carboxylic acid amides and salts thereof” (Institut Organicheskogo Sinteza Akademii Nauk Latviiskoi SSR, priority 1977, dated 1980)
“Also recorded” adds a separate entry of the source.

Columns and labels:
Lungs = assay: In vivo biosynthesis of DNA, RNA and protein in lungs; parameters: species or system mice; conditions: 24 hours, intraperitoneal 28 mg/kg
Protocol: (§1) The influence of giniquine on biosynthetic processes in the in vivo tests was studied on common white mice of a mass of 25-35 g with Ehrlich ascitic tumor.
The mice were divided into two groups. The animals in the first group were given a single injection of the preparation in differing doses, and the animals in the second group were treated with distilled water. Three series of experiments were conducted. In the first series of tests (16 mice) the preparation was injected in a dose of 100 mg/kg ([…] dose), and the animals were decapitated one hour after the injection; in the second test series (16 mice) the animals were slaughtered 3 hours after the injection with other conditions being the same. In the third test series (35 mice) the influence of giniquine on plastic metabolism in tumor cells and normal tissues was studied 24 hours after the injection of a 0.33% solution of the preparation in a dose of 28 mg/kg (therapeutical dose).
Labeled precursors of nucleic acids and protein were injected intraperitoneally one hour before the slaughter of the animals (50 μc/100 g). Ascitic fluid, as well as liver and spleen, mucous membrane of small intestine, brain, kidneys and lungs were taken for analysis. 10% suspension was prepared from tumor cells, and 10% homogenates were prepared from tissues in a physiological solution.
(§2) Tumor cells and tissue homogenates for precipitation of nucleic acids were treated with 57% perchloric acid (10:1). […] Radioactivity of DNA and RNA fractions was measured by means of a liquid scintillation counter. The quantity of DNA and RNA was determined by spectrophotometry: the quantity of DNA was determined with diphenylamine, and RNA- with orcin.
(§3) To prepare protein hydrolysate, the suspension of tumoral cells and homogenates of normal tissues were treated with cool 10% trichloracetic acid (1:4), with subsequent centrifuging at 2000 g for ten minutes. […] The radioactivity was measured by means of a liquid scintillation counter. Protein was quantitatively determined by spectrophotometry using a microbiuret reaction.

adenocarcinoma 755 = assay: Antitumor activity, adenocarcinoma 755; type: in vivo, mice
Protocol: (§4) Apart from the tests on Ehrlich ascitic tumor, giniquine was studied on twelve more inoculated tumors. Seven tumors (melanoma B16, sarcoma AK, large intestine carcinoma acatol-1, sarcoma 180, adenocarcinoma 755, Lewis lung carcinoma and sarcoma 37) were inoculated subcutaneously with 50 mg of tumoral cells per mouse. Four tumors (lymphatic leukemies L 5178, L 5178Y, L 1210 and P-388) were inoculated intraperitoneally with 10^6 cells per mouse. One tumor (La, hemocytoblastosis) was inoculated intraperitoneally by injecting 50 mg of cell suspension of spleen and liver of mice suffering La hemocytoblastosis, per mouse. Giniquine was injected intraperitoneally five times for seven days: 1,2,3,4,7 days or 3,4,5,6,7 days after the implantation of tumor. The rate of deceleration of the tumor growth was established 14 days after the ultimate injection of giniquine; life of test animals was recorded for 60 days.

sarcoma 180 = assay: Antitumor activity, sarcoma 180; type: in vivo, mice
Protocol: as §4

[1] = tested on: lymphatic leukemia L 5178Y; assay: Antitumor activity, lymphatic leukemia L 5178Y; type: in vivo, mice
Protocol: as §4

melanoma B16 = assay: Antitumor activity, melanoma B16; type: in vivo, mice
Protocol: as §4, with “Giniquine was injected intraperitoneally five times for seven days: 1,2,3,4,7 days or 3,4,5,6,7 days after the implantation of tumor.” left out

Ehrlich ascitic tumor = assay: Antitumor activity, life prolongation of mice with Ehrlich ascitic tumor; type: in vivo
Protocol: The experiment was conducted as follows. 10^6 cells of Erlich tumuor were injected in common white mice intraperitoneally, the dose being given per each animal. […] Each dose of the preparation was tested in six mice. The control group included 18 mice. Giniquine solution was prepared by dissolving the substance ex tempore in distilled water or in a buffer. The effect of the preparation is shown on charts 1,2,3.

[2] = tested on: normal tissues (mucous membrane of small intestine, liver, spleen, brain, kidneys, lungs); assay: In vivo biosynthesis of macromolecules in normal tissues; parameters: species or system mice; conditions: 24 hours, 28 mg/kg
Protocol: as §1
The mice were divided into two groups. The animals in the first group were given a single injection of the preparation in differing doses, and the animals in the second group were treated with distilled water. Three series of experiments were conducted. […]
as §2, §3

tumor cells = assay: Antiblastic activity and selectivity of action on tumor cells (general statement)
[3] = BDF1 female mice, intraperitoneal, days 1,2,3,4,7, optim. daily dose 6.0 mg/kg
[4] = BDF1 male mice, intraperitoneal, days 1,2,5,6,7, optim. daily dose 17.0 mg/kg

SMILES: CCN(CC)CCCC(C)NC(=O)c1cc(C=Cc2ccc([N+](=O)[O-])o2)nc2ccccc12 (stereo not drawn) [giniquine, 2-[2'-(5"-nitrofuryl-2")vinyl]quinoline-4-carboxylic acid (α-methyl-δ-diethylaminobutyl)amide triphosphate]
- Incorporation of specific precursors, DNA (Lungs): 255.0 % of control
- Incorporation of specific precursors, Protein (Lungs): 102.0 % of control
- Incorporation of specific precursors, RNA (Lungs): 124.0 % of control
- Deceleration of tumor growth (adenocarcinoma 755; [3]): 28%
- Max. prolongation of life (adenocarcinoma 755; [3]): 25%
- antitumor effect (in words) (adenocarcinoma 755; adenocarcinoma 755): slight antitumor effect
- Deceleration of tumor growth (sarcoma 180; common female mice, intraperitoneal, days 3,4,5,6,7, optim. daily dose 6.0 mg/kg): 37%
- Max. prolongation of life (sarcoma 180; common female mice, intraperitoneal, days 3,4,5,6,7, optim. daily dose 10.0 mg/kg): 23%
- antitumor effect / sensitivity (in words) (sarcoma 180; sarcoma 180): slight antitumor effect
- Max. life prolong. ([1]; BDF1 female mice, intraperitoneal, days 1,2,3,4,7, optimum daily dose 6.0 mg/kg): 5%
- sensitivity (in words) ([1]; L-5178Y): practically insensitive
- Deceleration of tumor growth (melanoma B16; [4]): 48%
- Max. prolongation of life (melanoma B16; [4]): 10%
- antitumor effect (in words) (melanoma B16; melanoma B16): slight antitumor effect
- dependence of antitumoral effect on solution concentration (Ehrlich ascitic tumor; 0.1 to 0.35% solution): did not change within this range of concentrations
- prolongation of life (Ehrlich ascitic tumor; Chart 1, intraperitoneal injection): 100%
- prolongation of life (Ehrlich ascitic tumor; Chart 1, intravenous injection): 25%
- antitumor effect, single versus five injections (Ehrlich ascitic tumor; Chart 2, single intraperitoneal injection on first day vs five injections at 1,2,3,4,7 days): the same
- prolongation of life (Ehrlich ascitic tumor; Chart 3, intraperitoneal injection on 7th day): 100%
- prolongation of life (Ehrlich ascitic tumor; Chart 3, intraperitoneal injection on 14th day): 55%
- prolongation of life (Ehrlich ascitic tumor; Chart 3, intraperitoneal injection on first day after implantation): 90%
- prolongation of life (Ehrlich ascitic tumor; Chart 3, intraperitoneal injection on third day): 80%
- biosynthesis processes in normal tissues (in words) [2]: a stimulation of biosynthesis processes
- germicidal activity (Germicidal activity): exhibits a germicidal activity; also recorded: combines in itself both actions
- antiblastic / antitumoral activity (tumor cells): highly active antitumoral preparation
- selective (contact) action on tumor cells (tumor cells): selective action on tumor cells
